Results on one compound are retold here after patent US8298581B2, “Matrix compositions for controlled delivery of drug substances” (Egalet A/S, priority 2003, dated 2012).

The solubility is the concentration that dissolves in the medium under given conditions. A higher solubility goes with a readily soluble substance.

This series can be described thus: Solubility of active ingredient in water. It is filed as physicochemical. To be noted: 23° C., water at pH 7.6.

≈ marks a conversion by molar mass, not a printed value.

Compound `NCC(CC(=O)O)c1ccc(Cl)cc1` (stereo not shown) [active ingredient, Baclofen] had a solubility of 4300 µg/mL (≈ 20.1 mM).
